The source of these data is patent US11471481B2, “Rapid-deposition thin-film forming compositions as effective wound care treatment” (priority 2016, dated 2022).

Read-outs that look alike come from different tables or passages of the source.

The subject of data set [1] is human skin fibroblast. To be noted: cited from earlier work.
The nature of data set [2]: Solubility of PVP-I in different organic solvents. The class given is physicochemical. The procedure:
PVP-I is a polymer complex soluble in water.
To make PVP-I liquid bandage solutions to form rapid-deposition film on skin surface, low boiling-point volatile solvents were selected to study solubility of PVP-I and the time required for the solvent to evaporate to dryness. […] When ethanol alone was the solvent, the drying time was 3 minutes 27 seconds. A mixed solvent has even shorter drying time. Particularly, when the mixed solvent contains acetone and isopentane (which have low boiling points), drying time had been shortened to less than 2 minutes, as the mixed solvents could form azeotropes, which was easier to evaporate. Isopentane had some irritation to skin, and thus its dosage could not be too high. From the study, dosage greater than 15% of isopentane could not shorten the drying time, but instead increase the skin irritation. n-Pentane is not used because of its pungent smell. Therefore, after a preliminary study, ethanol, ethyl acetate, acetone and isopentane alone or combinations were chosen as the solvent phase in this invention.

Povidone iodine [PVP-I]: the Fibroblast growth entry was “progressively retarded” in data set [1] (0.01% and 0.025% PVP-I solutions); “totally inhibited” in data set [1] (0.1% and 1% PVP-I solutions). In addition, the “Solubility of PVP-I in ethanol” value in data set [2] (ethanol) is on record as “readily soluble”. Further, the “Solubility of PVP-I in ethyl acetate, acetone, isopentane and n-pentane” value in data set [2] (ethyl acetate, acetone, isopentane, n-pentane) was “insoluble”.
